From patent publication US9422254B2, “Methoxyacrylate-based fungicide and methods for preparing and using the same” (priority 2008, dated 2016)
“And” between values parts separate entries of the source, which are not always exact repeats. Equal entries are not always repeated.

Legend:
cucumber powdery mildew = experiment: Field efficacy trial of emulsifier concentrate 1, cucumber powdery mildew; format: in vivo
Description: To a beaker (1000 mL), 50 g (100% basis) of the compound of Formula (I), 150 g of DMF, and 50 g of acetone were added and stirred for dissolution. To the solution, 25 g of pesticide emulsifier No. 500 and 50 g of Tween 80, 20 g of epoxidized soybean oil, and […] of toluene were added. Thus, the emulsifier concentrate 1 having 5 wt. % of the compound of Formula (I) was obtained and further packed.
On the basis of indoor activity evaluation, field efficacy trials of the compound of Formula (I) on cucumber downy mildew, cucumber powdery mildew, and melon powdery mildew were conducted.

Fusarium moniliforme = experiment: microbe, parasite or virus in culture; format: cell-based; conditions: Fusarium verticillioides, read-out: Inhibition rate (%)
[1] = test system: Helminthosporium torulosum; experiment: microbe, parasite or virus in culture; format: cell-based; conditions: Corynespora torulosa, read-out: Inhibition rate (%)
Phytophthora infestans = experiment: microbe, parasite or virus in culture; format: cell-based; conditions: read-out: Inhibition rate (%)
Alternaria alternata = experiment: microbe, parasite or virus in culture; format: cell-based; conditions: read-out: Inhibition rate (%)
[2] = test system: Botryosphaeria berengeriana; experiment: microbe, parasite or virus in culture; format: cell-based; conditions: read-out: Inhibition rate (%)
NADH oxidase (NOX) = NADH oxidase (NOX) (Sus scrofa, UniProt P24964); experiment: Enzyme activity test, NOX; format: biochemical; conditions: azoxystrobin as control agent
Sequence of NADH oxidase (NOX) (P24964 whole entry): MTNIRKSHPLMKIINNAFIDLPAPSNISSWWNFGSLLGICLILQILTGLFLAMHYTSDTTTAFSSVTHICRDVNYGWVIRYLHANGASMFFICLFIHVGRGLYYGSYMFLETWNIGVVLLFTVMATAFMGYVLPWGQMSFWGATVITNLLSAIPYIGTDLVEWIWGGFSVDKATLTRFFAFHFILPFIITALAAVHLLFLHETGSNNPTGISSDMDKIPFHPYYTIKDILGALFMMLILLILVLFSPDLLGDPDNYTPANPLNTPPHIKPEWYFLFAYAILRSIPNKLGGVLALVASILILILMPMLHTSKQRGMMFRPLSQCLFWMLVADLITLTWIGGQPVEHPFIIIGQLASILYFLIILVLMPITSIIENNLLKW
Description: Take NADH oxidase (NOX), succinate-cytochrome C oxidase (SCO), and Complex III as target enzymes, the inhibitory activity of the compound of Formula (I) was tested.
^a NOX is generally used to detect an inhibitor of Complex I and Complex III; SCO is generally used to detect an inhibitor of Complex II and Complex III. Thus, an inhibitor of Complex III should have inhibitory activity on the two enzymes.

Sphaerotheca uliginea = experiment: Fungicidal activity on potted cucumber, powdery mildew; format: in vivo
Description: 1. Fungicidal Activity Assay on Potted Plants at Room Temperature
Take cucumber downy mildew and powdery mildew as examples, the assay were carried out as follows:
2) Sphaerotheca uliginea: Pathogen of Cucumber Powdery Mildew
A cucumber seedling having uniform growth status and in the true leaf stage was collected, sprayed with the compound of Formula (I), and dried in the shade for 24 hrs. Fresh spore was collected from cucumber leaves infected by Sphaerotheca uliginea, filtered with a double-layer gauze, and prepared into a suspension (1.0×10^5 cells/mL). The suspension was sprayed to the dried cucumber seedling. Subsequently, the inoculated seedling was dried naturally and cultured under light in a thermostatic chamber (21-23° C.). 7-8 days later, compared with the blank control, the disease of the cucumber seedlings was graded. Based on the resultant disease index, the efficacy was calculated.
The grading standard follows “Guidelines on efficacy evaluation of pesticides”, and the efficacy is calculated on the basis of the disease index.

Pyricularia oryzae = experiment: microbe, parasite or virus in culture; format: cell-based; conditions: read-out: Inhibition rate (%)
rabbit's eye = experiment: Eye stimulation test; format: in vivo
Description: (§1) The toxicological indexes of the compound were tested following the standard GB15670-1995 “Toxicological test methods of pesticides for registration” by Tongji Medical College, Huazhong University of Science and Technology.

[3] = test system: Cucumber gray mold (Q503001); experiment: In vivo micro-screening assay
Description: In Vivo Micro-Screening Assay
To further study the fungicidal spectrum of the compound of Formula (I), indoor in vivo micro-screening assay were carried out on cucumber gray mold, cucumber scab, cucumber sclerotinia rot, cucumber brown spot, pepper phytophthora blight, and rice sheath blight.
Medicament to be tested and medicament of control groups were prepared as needed in a sunny morning. Cucumber gray mold, cucumber scab, cucumber brown spot, cucumber sclerotinia rot, and rice sheath blight were medicated by spray, and after air dry, pathogens of cucumber scab and of cucumber brown spot were inoculated through spraying spore suspension respectively, pathogens of cucumber gray mold, of cucumber sclerotinia rot, and of rice sheath blight were inoculated through lawn foliage. Pepper phytophthora blight was medicated and inoculated by root-irrigation. Subsequently, all seedlings were cultured in wet environment.
After the disease of control groups were serious, spot area, disease index, and the diseased seedling rate were investigated to calculate the efficacy. Cucumber scab, cucumber brown spot, and pepper phytophthora blight were investigated by grading method. The spot extension area of cucumber gray mold and of rice sheath blight was investigated. The diseased seedling rate of cucumber sclerotinia rot was investigated. Disease index=Σ(amount of infected diseased leaves in a grade×relative value of the grade)×100/(total amount of leaves×9); Diseased seedling rate (%)=(total amount of seedlings−amount of diseased seedlings)/total amount of seedlings×100% Prevention and treatment effect (%)=(disease of control group−disease of experiment group)/disease of control group×100%

rat = experiment: Acute skin test; format: in vivo; conditions: rat
Description: as §1

Acute skin test = format: in vivo, rat; conditions: in vivo, topical
Description: as §1

## CO/C=C(/C(=O)OC)c1ccccc1CSc1nc2cc(OC)ccc2s1 [Compound of Formula (I), (E)-methyl 3-methoxy-2-(2-((5-methoxy-benzothiazol-2-ylthio)methyl)phenyl)acrylate]
Cucumber powdery mildew; 12.5 mg/L, 7th day, Average
  Disease index (%): 5.9%
  Efficacy (%): 70.50%
Cucumber powdery mildew; 12.5 mg/L, 7th day, No. 1-4
  Disease index (%): 5.5% and 6.7% and 5.8%
  Efficacy (%): 71.05% and 70.59% and 71.54% and 69.71%
Cucumber powdery mildew; 12.5 mg/L, 14th day, Average
  Disease index (%): 6.8%
  Efficacy (%): 75.66%
Cucumber powdery mildew; 12.5 mg/L, 14th day, No. 1-4
  Disease index (%): 6.4% and 6.3% and 7.8% and 6.6%
  Efficacy (%): 74.80% and 76.40% and 75.73% and 76.45%
Cucumber powdery mildew; 12.5 mg/L, 21st day, Average
  Disease index (%): 12.7%
  Efficacy (%): 68.91%
Cucumber powdery mildew; 12.5 mg/L, 21st day, No. 1-4
  Disease index (%): 12.6% and 12.0% and 13.9% and 12.3%
  Efficacy (%): 67.88% and 68.34% and 69.40% and 70.29%
Cucumber powdery mildew; 25 mg/L, 7th day, Average
  Disease index (%): 3.9%
  Efficacy (%): 77.54%
Cucumber powdery mildew; 25 mg/L, 7th day, No. 1-4
  Disease index (%): 3.6% and 4.2% and 4.6% and 3.3%
  Efficacy (%): 78.48% and 76.74% and 77.57% and 77.35%
Cucumber powdery mildew; 25 mg/L, 14th day, Average
  Disease index (%): 4.0%
  Efficacy (%): 83.51%
Cucumber powdery mildew; 25 mg/L, 14th day, No. 1-4
  Disease index (%): 3.5% and 4.2% and 4.8%
  Efficacy (%): 84.35% and 83.71% and 82.85% and 83.59%
Cucumber powdery mildew; 25 mg/L, 21st day, Average
  Disease index (%): 7.0%
  Efficacy (%): 77.78%
Cucumber powdery mildew; 25 mg/L, 21st day, No. 1-4
  Disease index (%): 6.8% and 8.0% and 6.2%
Cucumber powdery mildew; 50 mg/L, 7th day, Average
  Disease index (%): 2.4%
  Efficacy (%): 85.63%
Cucumber powdery mildew; 50 mg/L, 7th day, No. 1-4
  Disease index (%): 2.1% and 2.4% and 2.8% and 2.2%
  Efficacy (%): 85.88% and 84.49% and 86.18% and 85.31%
Cucumber powdery mildew; 50 mg/L, 14th day, Average
  Disease index (%): 2.1%
  Efficacy (%): 90.99%
Cucumber powdery mildew; 50 mg/L, 14th day, No. 1-4
  Disease index (%): 2.1% and 1.8% and 2.7% and 1.9%
  Efficacy (%): 89.44% and 91.85% and 90.23% and 91.34%
Cucumber powdery mildew; 50 mg/L, 21st day, Average
  Disease index (%): 3.6%
  Efficacy (%): 89.45%
Cucumber powdery mildew; 50 mg/L, 21st day, No. 1-4
  Disease index (%): 3.2% and 3.0% and 4.4% and 3.7%
  Efficacy (%): 89.57% and 90.44% and 88.74% and 88.58%
Cucumber powdery mildew; 100 mg/L, 7th day, Average
  Disease index (%): 1.5%
  Efficacy (%): 91.67%
Cucumber powdery mildew; 100 mg/L, 7th day, No. 1-4
  Disease index (%): 1.7% and 1.2% and 1.9%
  Efficacy (%): 91.17% and 92.74% and 90.16% and 92.41%
Cucumber powdery mildew; 100 mg/L, 14th day, Average
  Disease index (%): 1.2%
  Efficacy (%): 95.23%
Cucumber powdery mildew; 100 mg/L, 14th day, No. 1-4
  Disease index (%): 0.9% and 1.3% and 1.4% and 1.0%
  Efficacy (%): 96.46% and 94.43% and 95.18% and 95.68%
Cucumber powdery mildew; 100 mg/L, 21st day, Average
  Disease index (%): 2.9%
  Efficacy (%): 91.52%
Cucumber powdery mildew; 100 mg/L, 21st day, No. 1-4
  Disease index (%): 3.3% and 2.6% and 2.8% and 3.0%
  Efficacy (%): 91.58% and 92.15% and 93.17% and 91.23%
Fusarium moniliforme; 0.3 mg/L
  inhibition at 0.3 µg/mL: 9.6%
Fusarium moniliforme; 3 mg/L
  inhibition at 3 µg/mL: 30.8%
Fusarium moniliforme; 30 mg/L
  inhibition at 30 µg/mL: 43.6%
[1]; 0.3 mg/L
  inhibition at 0.3 µg/mL: 11.3%
[1]; 3 mg/L
  inhibition at 3 µg/mL: 18.4%
[1]; 30 mg/L
  inhibition at 30 µg/mL: 21.4%
Phytophthora infestans
  inhibition at 0.3 µg/mL: 15.3%
  inhibition at 3 µg/mL: 33.7%
  inhibition at 30 µg/mL: 38%
Alternaria alternata; 0.3 mg/L
  inhibition at 0.3 µg/mL: 37.2%
Alternaria alternata; 3 mg/L
  inhibition at 3 µg/mL: 41.8%
Alternaria alternata; 30 mg/L
  inhibition at 30 µg/mL: 43.1%
[2]; 0.3 mg/L
  inhibition at 0.3 µg/mL: 44.1%
[2]; 3 mg/L
  inhibition at 3 µg/mL: 49.6%
[2]; 30 mg/L
  inhibition at 30 µg/mL: 63.6%
NADH oxidase (NOX)
  inhibitory activity on NOX compared with azoxystrobin: much higher inhibitory activity
Sphaerotheca uliginea; 3.125 mg/L, secondary screening
  Efficacy (%): 85.24%
Sphaerotheca uliginea; 6.25 mg/L, secondary screening
  Efficacy (%): 97.22%
Sphaerotheca uliginea; 12.5 mg/L, Table 1
  Efficacy (%): 97.22%
Sphaerotheca uliginea; 12.5 mg/L, secondary screening
  Efficacy (%): 98.50%
Sphaerotheca uliginea; 25 mg/L, Table 1
  Efficacy (%): 100%
Sphaerotheca uliginea; 25 mg/L, secondary screening
  Efficacy (%): 100%
Sphaerotheca uliginea; 50 mg/L, Table 1
  Efficacy (%): 100%
Sphaerotheca uliginea; 50 mg/L, secondary screening
  Efficacy (%): 100%
Sphaerotheca uliginea; 100 mg/L, Table 1
  Efficacy (%): 100%
Sphaerotheca uliginea; 200 mg/L, Table 1
  Efficacy (%): 100%
Sphaerotheca uliginea; powdery mildew
  preventive effect: good preventive effect
Sphaerotheca uliginea; secondary screening
  EC50: 0.96 µg/mL
  EC90: 3.87 µg/mL
Pyricularia oryzae
  inhibition at 0.3 µg/mL: 23.6%
  inhibition at 3 µg/mL: 56.5%
  inhibition at 30 µg/mL: 82.6%
rabbit's eye
  Eye stimulation: Mild stimulation on rabbit's eye
[3]; 100 mg/L
  Efficacy (%): 93.69%
  Spot area (mm^2): 7.78 mm^2
[3]; 500 mg/L
  Efficacy (%): 97.71%
  Spot area (mm^2): 2.82 mm^2
rat
  Toxicity (acute skin test): Low toxicity
Acute skin test; Female rat
  LD50: > 2000 mg/kg
Acute skin test; Male rat
  LD50: > 2000 mg/kg
